Test results from patent US7300946B2, “N-(substituted arylmethyl)-4-(disubstituted methyl) piperidines and pyridines” (Bayer CropScience AG, priority 2002, dated 2007).

System: tobacco budworm (Heliothis virescens [Fabricius])
Assay: surface-treated diet test against the tobacco budworm
Type: in vivo
Settings: tobacco budworm second instar larvae, 0.25 millimoles of candidate insecticide on the surface of the diet, five-day exposure; for Percent Mortality: compared to total number of insects infested; for Percent Growth Inhibition: inhibition of insect weight relative to untreated controls
Method in brief: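 Wheat germ artificial diet surface-treated with 40 µL of 50 mM DMSO stock diluted 1:7 in 1:1 water/acetone (0.25 millimolar on diet), or sub-multiples for rate tests. One second-instar larva per well, 25° C, 60% RH, 5 days; percent weight inhibition vs DMSO controls and percent mortality.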

Compound	Percent Mortality (surface-treated diet)	Percent Growth Inhibition (surface-treated diet)	Percent Mortality	Percent Growth Inhibition
CCON=Cc1ccc(CN2CCC(C(OC(=O)Nc3cccc(C(F)(F)F)c3)c3ccc(C(F)(F)F)cc3)CC2)cc1 (stereo not drawn) [Compound 204]	100%	100%	–	–
Fc1cc(F)cc(C(=C2CCN(Cc3ccc(Oc4ncccn4)cc3)CC2)c2ccc(C(F)(F)F)cc2)c1 [Compound 820]	–	–	50%	92%
O=C(Nc1cc(F)c(F)c(F)c1)OC(c1ccc(C(F)(F)F)cc1)C1CCN(Cc2ccc(Oc3ccccn3)cc2)CC1 (stereo not drawn) [Compound 697]	100%	100%	–	–
COC(=O)N(c1ccc(CN2CCC(C(OC(=O)Nc3cc(F)cc(F)c3)c3ccc(C(F)(F)F)cc3)CC2)cc1)c1ccccn1 (stereo not drawn) [Compound 516]	100%	100%	–	–
N#Cc1ccc(Oc2ccc(CN3CCC(C(OC(=O)Nc4ccc(Cl)cc4)c4ccc(OC(F)(F)F)cc4)CC3)cc2)nc1 (stereo not drawn) [Compound 708]	–	–	100%	100%
COc1cc(NC(=O)OC(c2ccc(Cl)cc2)C2CCN(Cc3ccc(Oc4ccccn4)cc3)CC2)cc(OC)c1 (stereo not drawn) [Compound 633]	50%	100%	–	–
O=C(Nc1ccc(Cl)cc1)OC(c1ccc(C(F)(F)F)cc1)C1CC[N+]([O-])(Cc2ccc(-c3ccccc3)cc2)CC1 (stereo not drawn) [Compound 747]	–	–	100%	100%
C#CCOC(=O)Nc1ccc(CN2CCC(=C(c3ccc(C(F)(F)F)cc3)c3ccc(C(F)(F)F)cc3)CC2)cc1 [Compound 802]	–	–	100%	100%
CCCOc1ccc(C[N+]2([O-])CCC(C(OC(=O)Nc3cc(F)cc(F)c3)c3ccc(C(F)(F)F)cc3)CC2)cc1 (stereo not drawn) [Compound 741]	–	–	100%	100%
O=C(Nc1cc(F)cc(F)c1)OC(c1ccc(C(F)(F)F)cc1)C1CCN(Cc2ccc(Oc3ncc(Cl)cc3Cl)cc2)CC1 (stereo not drawn) [Compound 686]	17%	98%	–	–
CCn1nnc(-c2ccc(CN3CCC(C(OC(=O)Nc4cc(F)cc(F)c4)c4cc(Cl)cc(Cl)c4)CC3)cc2)n1 (stereo not drawn) [Compound 580]	100%	100%	–	–
CCON=Cc1ccc(CN2CCC(C(OC(=O)Nc3ccccc3C(F)(F)F)c3ccc(C(F)(F)F)cc3)CC2)cc1 (stereo not drawn) [Compound 203]	100%	100%	–	–
O=C(Nc1ccc(Cl)cc1)OC(c1ccc(F)cc1)C1CCN(Cc2ccc(Oc3ncccn3)cc2)CC1 (stereo not drawn) [Compound 715]	–	–	100%	100%
CCON=Cc1ccc(CN2CCC(C(OC(=O)Nc3c(F)cccc3F)c3ccc(C(F)(F)F)cc3)CC2)cc1 (stereo not drawn) [Compound 199]	100%	100%	–	–
Cc1ccc(C(=O)NC(c2ccc(OC(F)(F)F)cc2)C2CCN(Cc3ccc(-c4nnn(C)n4)cc3)CC2)cc1 (stereo not drawn) [Compound 330]	33%	89%	–	–
CCn1nnc(-c2ccc(CN3CCC(C(OC(=O)Nc4ccc(Cl)cc4)c4ccc(C(F)(F)F)cc4)CC3)cc2)n1 (stereo not drawn) [Compound 265]	100%	100%	–	–
CCn1nnc(-c2ccc(CN3CCC(C(OC(=O)Nc4ccc(F)c(F)c4)c4ccc(Oc5ccccc5)cc4)CC3)cc2)n1 (stereo not drawn) [Compound 618]	100%	100%	–	–
CCn1nnc(-c2ccc(CN3CCC(C(OC(=O)Nc4cc(F)cc(F)c4)c4ccccc4Cl)CC3)cc2)n1 (stereo not drawn) [Compound 570]	100%	100%	–	–
Cn1nnc(-c2ccc(CN3CCC(C(NC(=O)c4ccccc4F)c4ccc(OC(F)(F)F)cc4)CC3)cc2)n1 (stereo not drawn) [Compound 326]	0%	93%	–	–
Cn1nnc(-c2ccc(C[N+]3([O-])CCC(C(OC(=O)Nc4ccc(F)cc4)c4ccc(OC(F)(F)F)cc4)CC3)cc2)n1 (stereo not drawn) [Compound 400]	100%	100%	–	–
O=C(Nc1ccc(F)cc1)OC(c1ccc(C(F)(F)F)cc1)C1CCN(Cc2ccc(-n3cccn3)cc2)CC1 (stereo not drawn) [Compound 555]	33%	100%	–	–
CCn1nnc(-c2ccc(CN3CCC(=C(c4ccc(F)cc4)c4ccc(C(F)(F)F)cc4)CC3)cc2)n1 [Compound 81]	100%	100%	–	–
O=C(Nc1cc(F)cc(F)c1)OC(c1ccc(C(F)(F)F)cc1)C1CC[N+]([O-])(Cc2ccc(Oc3ncccn3)cc2)CC1 (stereo not drawn) [Compound 765]	–	–	100%	100%
Cn1nnc(-c2ccc(CN3CCC(C(NC(=O)Nc4ccc(F)cc4)c4ccc(OC(F)(F)F)cc4)CC3)cc2)n1 (stereo not drawn) [Compound 340]	83%	100%	–	–
